For assay [1], the system named is acetylated α-tubulin in A549 lung adenocarcinoma cells. Nature of the assay: Acetylated α-tubulin in-cell western (ICW) assay. Particulars: Homo sapiens, 16 h exposure, relative to 40 μM scriptaid positive control, read-out: EC50 Ac-α-tubulin, A549 cells. The format is cell-based. A digest of the protocol: (§1)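 A549 cells exposed to compound for 16 h at 37 °C (0.4% DMSO final), then fixed and immunostained for acetylated α-tubulin or histone H3 with near-infrared detection, signal normalised to cell stain. Response expressed relative to DMSO controls and to 40 μM scriptaid (tubulin) or 40 μM TSA (H3); EC50 by constrained nonlinear regression.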

Assay [2] deals with acetylated histone H3 in A549 lung adenocarcinoma cells. Nature of the assay: Acetylated histone H3 in-cell western (ICW) assay. The format is cell-based. The note with it: Homo sapiens, 16 h exposure, relative to 40 μM Trichostatin A positive control, read-out: EC50 Ac-histone H3, A549 cells. Summed up: as §1

A value given as a limit tells only on which side of the number the result lay.

As a reminder, the EC50 is the concentration needed to bring the measured effect to its halfway point. For `FC(F)(F)c1ccc(N(Cc2ccc(-c3noc(C(F)(F)F)n3)s2)c2cnccn2)nn1` [Example DH, N-(Pyrazin-2-yl)-6-(trifluoromethyl)-N-({5-[5-(trifluoromethyl)-1,2,4-oxadiazol-3-yl]thiophen-2-yl}methyl)pyridazin-3-amine], the EC50 in assay [1] and in assay [2] was at least 10 µM throughout.

As for `FC(F)(F)c1nc(-c2ccc(CN(c3cnccn3)c3ccc(N4CCCC4)nn3)s2)no1` [Example DI, N-(Pyrazin-2-yl)-6-(pyrrolidin-1-yl)-N-({5-[5-(trifluoromethyl)-1,2,4-oxadiazol-3-yl]thiophen-2-yl}methyl)pyridazin-3-amine], the EC50 in assay [1] is 1 to 10 µM; in assay [2], at least 10 µM.

On to `CS(=O)(=O)c1nccc(N(Cc2ccc(-c3noc(C(F)(F)F)n3)s2)c2cnccn2)n1` [Example CE, 2-Methanesulfonyl-N-(pyrazin-2-yl)-N-({5-[5-(trifluoromethyl)-1,2,4-oxadiazol-3-yl]thiophen-2-yl}methyl)pyrimidin-4-amine], for which the EC50 in assay [1] and in assay [2] was at least 10 µM in each case.

Consider `CS(=O)(=O)c1ccc(N(Cc2ccc(-c3noc(C(F)(F)F)n3)s2)c2cnccn2)nn1` [Example DL, 6-Methanesulfonyl-N-(pyrazin-2-yl)-N-({5-[5-(trifluoromethyl)-1,2,4-oxadiazol-3-yl]thiophen-2-yl}methyl)pyridazin-3-amine], for which the EC50 in assay [1] was 1 to 10 µM; in assay [2] it was at least 10 µM.

These data come from patent US20210038607A1, “OXADIAZOLYLTHIOPHENE DERIVATIVES USEFUL AS HISTONE DEACETYLASE INHIBITORS” (Karus Therapeutics Limited, priority 2018, published 2021).
